The source of these data is patent US7666864B2, “Bicyclic nitroimidazole-substituted phenyl oxazolidinones” (priority 2008, dated 2010).

For assay [1], the system named is S. aureus ATCC# 29213 (Lzd-resistant). The experiment in a line: microbe, parasite or virus in culture. It is filed as cell-based, Staphylococcus aureus. To be noted: for MIC: Staphylococcus aureus, ATCC29213, linezolid-resistant isogenic strain; for MIC against strain resistant to linezolid: linezolid-resistant S. aureus.
For assay [2], the system named is Staphylococcus aureus ATCC 29213. Description: MIC against Staphylococcus aureus ATCC 29213, microbroth dilution (NCCLS). Format: cell-based. To be noted: for activity against Staphylococcus aureus ATCC 29213 (in words): Gram-positive species; for MIC: Staphylococcus aureus, ATCC29213, microbroth dilution, read-out: MIC S. aureus ATCC# 29213.
The test system of assay [3] is Mycobacterium tuberculosis H37Rv. Description: MIC against Mycobacterium tuberculosis H37Rv (method of Gruppo). To be noted: for MIC: Mycobacterium tuberculosis, H37RV. It is filed as cell-based.
Assay [4] has the same test system. Description: Anaerobic activity against Mycobacterium tuberculosis H37Rv under Wayne conditions (method of Lenaerts). It is filed as cell-based.

≈ marks a conversion by molar mass, not a printed value. Like-named read-outs stand apart in the source and are kept apart here.

In the case of `CC(=O)NC[C@H]1CN(c2ccc(-c3cnc(O[C@@H]4COc5nc([N+](=O)[O-])cn5C4)nc3)c(F)c2)C(=O)O1` [Example 8, (S,S)—N-(3-{3-Fluoro-4-[2-(2-nitro-6,7-dihydro-5H-imidazo[2,1-b][1,3]oxazin-6-yloxy)-pyrimidin-5-yl]-phenyl}-2-oxo-oxazolidin-5-ylmethyl)-acetamide], in assay [1], the MIC came out at 8 µg/mL (≈ 15.6 µM) and the “MIC against strain resistant to linezolid” value (shortened to “MIC against strain resistant”) is 8 micg/mL. In assay [2], the “activity against Staphylococcus aureus ATCC 29213 (in words)” value is on record as “more potent than linezolid” and the MIC was 1 µg/mL (≈ 1.95 µM). In assay [3], this molecule gave an MIC of 1 µg/mL (≈ 1.95 µM).

For `CC(=O)NC[C@H]1CN(c2ccc(-c3ccc(CO[C@@H]4COc5nc([N+](=O)[O-])cn5C4)cc3)c(F)c2)C(=O)O1` [Example 31, (S,S)—N-{3-[2-Fluoro-4′-(2-nitro-6,7-dihydro-5H-imidazo[2,1-b][1,3]oxazin-6-yloxymethyl)-biphenyl-4-yl]-2-oxo-oxazolidin-5-ylmethyl}-acetamide], in assay [1], the MIC is 4 µg/mL (≈ 7.61 µM) and the “MIC against strain resistant” value is given as 4 micg/mL. In addition, in assay [2], the “activity against Staphylococcus aureus ATCC 29213 (in words)” value is reported as “more potent than linezolid” and the MIC was determined as 1 µg/mL (≈ 1.9 µM). The molecule further yielded an MIC in assay [3] of 0.5 µg/mL (≈ 0.951 µM).

With `CC(=O)NC[C@H]1CN(c2ccc(OCC3(C)Cn4cc([N+](=O)[O-])nc4O3)c(F)c2)C(=O)O1` (stereo partly shown) [Example 50, N-{3-[3-Fluoro-4-(2-methyl-6-nitro-2,3-dihydro-imidazo[2,1-b]oxazol-2-ylmethoxy)-phenyl]-2-oxo-oxazolidin-5-ylmethyl}-acetamide], in assay [4], the “M. tuberculosis H37Rv % survival at 10 ug/mL (Low O2)” value (“M. tuberculosis H37Rv % survival” below) is listed as 1.8%. In addition, the MIC in assay [2] worked out at 64 µg/mL (≈ 142 µM). In assay [3], the “fold less potent than PA-824, in vitro MIC” value is on record as 8 fold; the “fold less potent than linezolid, in vitro MIC” value is recorded as 2 fold; the MIC came out at 4 µg/mL (≈ 8.9 µM).

Regarding `CC(=O)NC[C@H]1CN(c2ccc(N3CCOCC3)c(F)c2)C(=O)O1` [Linezolid, linezolid, reference compound], the MIC in assay [1] is 64 µg/mL (≈ 190 µM); in assay [2], 2 µg/mL (≈ 5.93 µM); in assay [3], 2 µg/mL (≈ 5.93 µM). Besides, the “MIC against strain resistant” value in assay [1] is listed as 64 micg/mL. Besides, the “M. tuberculosis H37Rv % survival” value in assay [4] and in assay [4] (listed as linezolid) was 28.2% throughout.

Consider `O=[N+]([O-])c1cn2c(n1)OC[C@@H](OCc1ccc(OC(F)(F)F)cc1)C2` [PA-824, reference compound], for which the values for the MIC in assay [1], in assay [2] and in assay [3] were more than 64 µg/mL, more than 64 µg/mL and 0.5 µg/mL (≈ 1.39 µM), respectively. The “M. tuberculosis H37Rv % survival” value in assay [4] was found to be 3.6%.
